Results published in publication PMC9016878 (ACS Omega, 2022).

How the values were obtained:
[1] = target: α-glucosidase from Saccharomyces cerevisiae; assay: α-glucosidase inhibition; assay type: biochemical; conditions: read-out: Inhibitory activity (IC50) on α-glucosidase; mean ± SD; pNPG substrate, pH 6.8, 37 °C
[2] = target: T1, porcine pancreatic amylase (Sus scrofa, UniProt P00690); assay: biochemical
T1 sequence (P00690 16-511): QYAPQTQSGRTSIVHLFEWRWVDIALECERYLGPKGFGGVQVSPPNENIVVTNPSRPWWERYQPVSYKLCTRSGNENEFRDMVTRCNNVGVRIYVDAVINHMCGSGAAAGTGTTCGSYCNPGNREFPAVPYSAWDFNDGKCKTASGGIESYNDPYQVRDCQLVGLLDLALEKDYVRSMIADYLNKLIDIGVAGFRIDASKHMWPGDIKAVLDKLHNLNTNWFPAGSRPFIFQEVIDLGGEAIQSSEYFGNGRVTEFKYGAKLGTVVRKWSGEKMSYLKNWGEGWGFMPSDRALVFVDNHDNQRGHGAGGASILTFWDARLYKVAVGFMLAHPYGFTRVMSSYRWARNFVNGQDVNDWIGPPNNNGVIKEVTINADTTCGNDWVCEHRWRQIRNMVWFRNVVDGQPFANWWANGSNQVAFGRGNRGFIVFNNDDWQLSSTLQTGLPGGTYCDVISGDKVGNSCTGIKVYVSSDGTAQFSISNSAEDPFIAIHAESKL

[3] = target: T2, lipase from porcine pancreas (Sus scrofa, UniProt P00591); assay: pancreatic lipase inhibition; assay type: biochemical
T2 sequence (P00591 1-450): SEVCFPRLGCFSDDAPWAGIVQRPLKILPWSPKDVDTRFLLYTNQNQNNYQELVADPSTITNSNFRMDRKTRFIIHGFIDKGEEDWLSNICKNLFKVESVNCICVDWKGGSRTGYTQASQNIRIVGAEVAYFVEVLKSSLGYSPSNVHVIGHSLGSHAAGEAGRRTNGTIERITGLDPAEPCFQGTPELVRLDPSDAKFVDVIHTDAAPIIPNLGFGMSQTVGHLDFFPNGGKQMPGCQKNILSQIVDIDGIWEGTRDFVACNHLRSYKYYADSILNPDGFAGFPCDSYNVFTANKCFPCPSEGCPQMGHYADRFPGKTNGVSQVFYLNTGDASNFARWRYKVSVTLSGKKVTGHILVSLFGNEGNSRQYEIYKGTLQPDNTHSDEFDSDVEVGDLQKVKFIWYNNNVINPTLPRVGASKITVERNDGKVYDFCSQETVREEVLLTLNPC

SMILES	IC50 [1] [µM]	IC50 [2] [µM]	IC50 [3] [µM]
C[C@@H]1CC[C@]2(C(=O)O)CC[C@]3(C)C(=CC[C@@H]4[C@@]5(C)CC[C@H](O)C(C)(C)[C@@H]5CC[C@]43C)[C@@H]2[C@]1(C)O [compound 13, pomolic acid]	85.5 ± 6.87	142 ± 6.15	458 ± 72.8
C[C@@H]1CC[C@]2(C(=O)O)CC[C@]3(C)C(=CC[C@@H]4[C@@]5(C)[C@H](O)C(=O)[C@H](O)C(C)(C)[C@@H]5CC[C@]43C)[C@@H]2[C@]1(C)O [compound 7, 1-hydroxy-2-oxopomolic acid]	192 ± 13.8	–	–
CC[C@H](CC[C@@H](C)[C@H]1CC[C@H]2[C@@H]3CC=C4C[C@@H](O[C@@H]5O[C@H](CO)[C@@H](O)[C@H](O)[C@H]5O)CC[C@]4(C)[C@H]3CC[C@]12C)C(C)C [compound 14, β-sitosterol glucoside]	–	113 ± 3.51	–
